Data reported in patent US6451571B1, “Thymidine kinase mutants” (University of Washington, priority 1994, dated 2002).

What was measured:
[1] = Substrate specificity assay, deoxycytidine; assay type: biochemical; settings: cell-free translation products, 2 hours at 30° C.
Procedure: (§1) Three of the mutants (P155A/F161V, F161I and F161C) were assayed in triplicate for the relative levels of phosphorylation using thymidine, deoxycytidine, ACV, GCV, or AZT as substrates. Briefly, forty-eight […] of each tritiated substrate was used in each assay reaction. Translation products were diluted for each nucleoside assay as follows (translation/H2O). 1/100, thymidine; 2/3, deoxycytidine, GCV, and AZT; 4/1, ACV. Each set of assays was incubated for 2 hours at 30° C. and the amount of phosphorylated product determined.

[2] = Substrate specificity assay, ACV; assay type: biochemical; settings: cell-free translation products, 2 hours at 30° C.
Procedure: as §1

[3] = Time course analysis of thymidine phosphorylation by cell-free translation products; assay type: biochemical; settings: for TK activity (thymidine phosphorylation) in time course compared to wild-type TK: cell-free translation products, 30° C., adjusted to protein synthesis levels; for classification on the basis of TK activities: high-activity or low-activity subset
Procedure: The transcripts described above were then used in a rabbit reticulocyte lysate cell-free translation system to synthesize active enzymes. Cell-free translation was according to Promega using nuclease-treated rabbit reticulocyte lysates.
For the high-activity mutant enzymes, unlabeled translation products were diluted 1/9 and incubated for 0, 5, 10, 20, or 30 minutes at 30° C. The TK activity results (counts per minute) were adjusted to reflect equivalent protein synthesis levels using the corresponding TCA-precipitable counts (^35S cpm).
The low-activity mutants were diluted 1/5, and the rate of phosphorylation as a function of time was also determined.

[4] = test system: E. coli KY895; experiment: Secondary screen: colony formation on acyclovir, AZT, LB and TK selection plates; assay type: cell-based; parameters: key to ACV / AZT / LB / 37° C. / 42° C.: ++: the same number of colonies were observed as compared to control plates; +: fewer (<20% those observed with pMCC) and generally smaller (˜50% smaller diameter) colonies were observed as compared to control plates; −: no colonies were observed; settings: for utilization of nucleoside analogues over thymidine in comparison to the wild-type: ACV and AZT plates; for AZT: colonies on AZT plates: 1 μg/mL thymidine + 0.05 μg/mL AZT; for AZT / ACV: 37° C.; for LB: colonies on LB+carb50 plates; for 37° C.: colonies on TK selection plates at 37° C.; for 42° C.: colonies on TK selection plates at 42° C.; for ACV: colonies on acyclovir plates: 1 μg/mL thymidine + 1 μg/mL acyclovir
Procedure: The ability of pMCC (KY895) and 35 log-phase mutant pMDC (KY895) cultures to produce colonies on acyclovir (“ACV”) or AZT plates was determined in a secondary screen as described below. Briefly, log-phase cultures of TK positive clones were serially diluted in 0.9% NaCl and spread onto acyclovir or AZT plates (TK selection plates except 1 μ/mL thymidine+1 μg/mL acyclovir or 0.05 μg/mL AZT). Mutant cultures were also spread onto duplicate TK selection and LB+carb^50 plates. One set of TK selection plates and LB+carb^50 plates were incubated at 42° C. All other plates were incubated at 37° C. After 16-24 hours the plates were scored.
Briefly, only mutants that gave results which differed from those observed with the wild-type pMCC (KY895) are shown.

[5] = Substrate specificity assay, thymidine; assay type: biochemical; settings: cell-free translation products, 2 hours at 30° C.
Procedure: as §1

[6] = assay type: biochemical; settings: for thermal stability compared to HSVTKII after 42° C. preincubation: cell-free translation products
Procedure: To substantiate this observation, cell-free translation products were incubated at 42° C. for increasing times prior to being assayed for enzyme activity. Briefly, cell free translation (“CFT”) products of each high-activity mutant, -RNA, and HSVTKII samples were diluted 1/9 and incubated for 0, 5, 10, and 20 minutes at 42° C. The preincubated samples were then assayed for 5 minutes (P155A/F161V and F161I) or 20 minutes (-RNA, HSVTKII, F161C, and D162E). The percent of activity remaining was determined with the untreated samples set at 100%. […] Because F161C lost greater than 90% of enzyme activity within the first 20 minutes at 42° C., shorter incubation periods at 42° C. were performed (0, 5, 10, and 20 minutes).
Low-activity mutant CFT products were diluted 1/5 and incubated for 0, 20, 40, or 60 minutes at 42° C. The preincubated samples were then assayed in triplicate for the thymidine phosphorylation for 60 minutes. The percent of activity remaining was determined using the untreated (time 0) sample as 100%.

## P155A/F161V
[1]
  phosphorylation of deoxycytidine over the wild-type enzyme: 2.8 fold
[2]
  phosphorylation of ACV over HSVTKII: 2.4 fold
[3]
  TK activity (thymidine phosphorylation) in time course compared to wild-type TK: statistically higher affinity for thymidine than the wild-type TK
  classification on the basis of TK activities: high-activity
[4]
  utilization of nucleoside analogues over thymidine in comparison to the wild-type: preferentially utilize one or both nucleoside analogues over thymidine
  AZT: + (fewer (<20% those observed with pMCC) and generally smaller (˜50% smaller diameter) colonies were observed as compared to control plates)
  LB: ++
  37° C.: ++
  42° C.: ++
  ACV: ++
[5]
  phosphorylation of thymidine relative to HSVTKII: 2.6 fold

## F161C
[1]
  phosphorylation of deoxycytidine over the wild-type enzyme: 2.8 fold
[6]; cell-free translation product
  activity loss after only 5 minutes at 42° C.: ~85%
  loss of enzyme activity within the first 20 minutes at 42° C.: greater than 90%
[6]
  thermal stability compared to HSVTKII after 42° C. preincubation: exceptionally thermolabile
[2]
  phosphorylation of ACV over HSVTKII: 2 fold
[3]
  TK activity (thymidine phosphorylation) in time course compared to wild-type TK: no difference in activities when compared to the wild-type TK
  classification on the basis of TK activities: high-activity
[4]
  utilization of nucleoside analogues over thymidine in comparison to the wild-type: preferentially utilize one or both nucleoside analogues over thymidine
  AZT: −
  LB: ++
  37° C.: ++
  42° C.: ++
  ACV: + (fewer (<20% those observed with pMCC) and generally smaller (˜50% smaller diameter) colonies were observed as compared to control plates)

## R163P/H164Q
[6]
  thermal stability compared to HSVTKII after 42° C. preincubation: equivalent to HSVTKII
[3]
  classification on the basis of TK activities: low-activity
[4]
  ability to form colonies on TK selection plates at 42° C.: unable to form colonies
  utilization of nucleoside analogues over thymidine in comparison to the wild-type: preferentially utilize one or both nucleoside analogues over thymidine
  AZT: + (fewer (<20% those observed with pMCC) and generally smaller (˜50% smaller diameter) colonies were observed as compared to control plates)
  LB: ++
  37° C.: ++
  42° C.: −
  ACV: + (fewer (<20% those observed with pMCC) and generally smaller (˜50% smaller diameter) colonies were observed as compared to control plates)

## F161I/R163H
[6]
  thermal stability compared to HSVTKII after 42° C. preincubation: equivalent to HSVTKII
[3]
  classification on the basis of TK activities: low-activity
[4]
  ability to form colonies on TK selection plates at 42° C.: severely reduced ability to form colonies
  AZT: ++
  LB: ++
  37° C.: ++
  42° C.: + (fewer (<20% those observed with pMCC) and generally smaller (˜50% smaller diameter) colonies were observed as compared to control plates)
  ACV: ++

## F161I
[1]
  phosphorylation of deoxycytidine over the wild-type enzyme: 1.9 fold
[3]
  TK activity (thymidine phosphorylation) in time course compared to wild-type TK: statistically higher affinity for thymidine than the wild-type TK
  classification on the basis of TK activities: high-activity
[4]
  utilization of nucleoside analogues over thymidine in comparison to the wild-type: preferentially utilize one or both nucleoside analogues over thymidine
  AZT: + (fewer (<20% those observed with pMCC) and generally smaller (˜50% smaller diameter) colonies were observed as compared to control plates)
  LB: ++
  37° C.: ++
  42° C.: ++
  ACV: + (fewer (<20% those observed with pMCC) and generally smaller (˜50% smaller diameter) colonies were observed as compared to control plates)
[5]
  phosphorylation of thymidine relative to HSVTKII: 2.2 fold

## D162G
[6]
  thermal stability compared to HSVTKII after 42° C. preincubation: equivalent to HSVTKII
[3]
  classification on the basis of TK activities: low-activity

## D162E
[3]
  TK activity (thymidine phosphorylation) in time course compared to wild-type TK: no difference in activities when compared to the wild-type TK
  classification on the basis of TK activities: high-activity

## F161L
[6]
  thermal stability compared to HSVTKII after 42° C. preincubation: more thermolabile that HSVTKII
[3]
  TK activity (thymidine phosphorylation) in time course compared to wild-type TK: moderate ability to phosphorylate thymidine, albeit at a much reduced rate from HSVTKII
  classification on the basis of TK activities: low-activity
[4]
  ability to form colonies on TK selection plates at 42° C.: unable to form colonies
  AZT: ++
  LB: ++
  37° C.: ++
  42° C.: −
  ACV: ++
